Source: ChEMBL document CHEMBL5579867, “Ligand-Based Pharmacophoric Design and Anti-inflammatory Evaluation of Triazole Linked Semisynthetic Labdane Conjugates” (ACS Med Chem Lett, 2024)
The source made the active and inactive calls. No cut-off for these calls is given here.

Key:
RAW264.7 [1] = assay: Cytotoxicity against mouse RAW264.7 cells assessed as reduction in cell viability at 1 to 20 uM incubated for 24 hrs by MTT assay; assay type: toxicity, cell-based; details: raw264.7, 24 h, dose 1-20 µM
RAW264.7 [2] = assay: Antiinflammatory activity in LPS-induced mouse RAW264.7 cells assessed as inhibition of NO production at 1 to 20 uM pretreated for 1 hr followed by LPS stimulation and measured after 23 hrs by Griess method; assay type: functional, cell-based; details: dose 1-20 µM, time 24.0 hrs
RAW264.7 [3] = assay: Antiinflammatory activity in LPS-induced mouse RAW264.7 cells assessed as inhibition of TNF-alpha production at 20 uM pretreated for 1 hr followed by LPS stimulation and measured after 24 hrs by ELISA; assay type: functional, cell-based; details: time 25.0 hrs
RAW264.7 [4] = assay: Antiinflammatory activity in LPS-induced mouse RAW264.7 cells assessed as inhibition of IL-6 production at 20 uM pretreated for 1 hr followed by LPS stimulation and measured after 24 hrs by ELISA; assay type: functional, cell-based; details: time 25.0 hrs
RAW264.7 [5] = assay: Antiinflammatory activity in LPS-induced mouse RAW264.7 cells assessed as inhibition of NO production pretreated for 1 hr followed by LPS stimulation and measured after 23 hrs by Griess method; assay type: functional, cell-based
RAW264.7 [6] = assay: Inhibition of LPS-induced NF-kappaB activation in mouse RAW264.7 cells assessed as inhibition of p65 phosphorylation at 20 uM pretreated for 1 hr followed by LPS stimulation and measured after 24 hrs by Western blot analysis; assay type: cell-based; details: time 25.0 hrs

| SMILES | Activity (RAW264.7 [1]) | Activity (RAW264.7 [2]) | Activity (RAW264.7 [3]) | Activity (RAW264.7 [4]) | IC50 (RAW264.7 [5]) | inhibition (RAW264.7 [6]) |
| --- | --- | --- | --- | --- | --- | --- |
| C=C1CC[C@H]2C(C)(C)CCC[C@]2(C)[C@H]1C/C=C(/C=O)CC(=O)OCc1cn(CCCN2C(=O)C(=O)c3ccccc32)nn1 | Non-Toxic | inactive | Active | Active |  |  |
| COc1ccc2c(c1)c(CC(=O)O)c(C)n2C(=O)c1ccc(Cl)cc1 [INDOMETHACIN] |  |  |  |  | 7.31 µM | Active |
| C=C1CC[C@H]2C(C)(C)CCC[C@]2(C)[C@H]1C/C=C(/C=O)CC(=O)OCc1cn(CCN2C(=O)C(=O)c3cc(F)ccc32)nn1 | Non-Toxic | inactive | Active | Active |  |  |
| C=C1CC[C@H]2C(C)(C)CCC[C@]2(C)[C@H]1C/C=C(/C=O)CC(=O)OCc1cn(CCCCN2C(=O)C(=O)c3cc(OC(F)(F)F)ccc32)nn1 | Non-Toxic |  | Active | Active |  |  |
| C=C1CC[C@H]2C(C)(C)CCC[C@]2(C)[C@H]1C/C=C(/C=O)CC(=O)OCc1cn(CCCN2C(=O)C(=O)c3cc(I)ccc32)nn1 | Non-Toxic |  | Active | Active |  |  |
| C=C1CC[C@H]2C(C)(C)CCC[C@]2(C)[C@H]1C/C=C(\CC(=O)O)C(=O)O | Non-Toxic |  | Active | Active |  |  |
| C=C1CC[C@H]2C(C)(C)CCC[C@]2(C)[C@H]1C/C=C(\CC(=O)OCc1cn(CCN2C(=O)C(=O)c3cc(Br)ccc32)nn1)C(=O)OCc1cn(CCN2C(=O)C(=O)c3cc(Br)ccc32)nn1 | Non-Toxic |  | Active | Active |  |  |
| C=C1CC[C@H]2C(C)(C)CCC[C@]2(C)[C@H]1C/C=C(/C=O)CC(=O)OCc1cn(CCCCN2C(=O)C(=O)c3cc(Br)ccc32)nn1 | Non-Toxic |  | Active | Active |  |  |
| C=C1CC[C@H]2C(C)(C)CCC[C@]2(C)[C@H]1C/C=C(/C=O)CC=O | Non-Toxic |  | Active | Active |  |  |
| C=C1CC[C@H]2C(C)(C)CCC[C@]2(C)[C@H]1C/C=C(/C=O)CC(=O)OCc1cn(CCCCN2C(=O)C(=O)c3ccccc32)nn1 | Non-Toxic | inactive | Active | Active |  |  |
| C=C1CC[C@H]2C(C)(C)CCC[C@]2(C)[C@H]1C/C=C(/C=O)CC(=O)OCc1cn(CCN2C(=O)C(=O)c3cc(Cl)ccc32)nn1 | Non-Toxic | inactive | Active | Active |  |  |
| C=C1CC[C@H]2C(C)(C)CCC[C@]2(C)[C@H]1C/C=C(\CC(=O)OCc1cn(CCN2C(=O)C(=O)c3cc(OC)ccc32)nn1)C(=O)OCc1cn(CCN2C(=O)C(=O)c3cc(OC)ccc32)nn1 | Non-Toxic |  | Active | Active |  |  |
| C=C1CC[C@H]2C(C)(C)CCC[C@]2(C)[C@H]1C/C=C(/C=O)CC(=O)OCc1cn(CCCCN2C(=O)C(=O)c3cc(C)ccc32)nn1 | Non-Toxic | Active | Active | Active |  |  |
| C=C1CC[C@H]2C(C)(C)CCC[C@]2(C)[C@H]1C/C=C(/C=O)CC(=O)OCc1cn(CCCN2C(=O)C(=O)c3cc(Cl)ccc32)nn1 | Non-Toxic |  | Active | Active |  |  |
| C=C1CC[C@H]2C(C)(C)CCC[C@]2(C)[C@H]1C/C=C(/C=O)CC(=O)OCc1cn(CCCN2C(=O)C(=O)c3cc(Br)ccc32)nn1 | Non-Toxic |  | Active | Active |  |  |
| C=C1CC[C@H]2C(C)(C)CCC[C@]2(C)[C@H]1C/C=C(/C=O)CC(=O)OCc1cn(CCN2C(=O)C(=O)c3cc(OC)ccc32)nn1 | Non-Toxic |  | Active | Active |  |  |
| C=C1CC[C@H]2C(C)(C)CCC[C@]2(C)[C@H]1C/C=C(\CC(=O)OCc1cn(CCCN2C(=O)C(=O)c3cc(OC)ccc32)nn1)C(=O)OCc1cn(CCCN2C(=O)C(=O)c3cc(OC)ccc32)nn1 | Non-Toxic |  | Active | Active |  |  |
| C=C1CC[C@H]2C(C)(C)CCC[C@]2(C)[C@H]1C/C=C(/C=O)CC(=O)OCc1cn(CCN2C(=O)C(=O)c3cc(Br)ccc32)nn1 | Non-Toxic | inactive | Active | Active |  |  |

| SMILES | Activity (RAW264.7 [1]) | Activity (RAW264.7 [2]) | Activity (RAW264.7 [3]) | Activity (RAW264.7 [4]) | IC50 (RAW264.7 [5]) | inhibition (RAW264.7 [6]) |
| --- | --- | --- | --- | --- | --- | --- |
| C=C1CC[C@H]2C(C)(C)CCC[C@]2(C)[C@H]1C/C=C(/C=O)CC(=O)OCc1cn(CCCCN2C(=O)C(=O)c3cc(Cl)ccc32)nn1 | Non-Toxic |  | Active | Active |  |  |
| C=C1CC[C@H]2C(C)(C)CCC[C@]2(C)[C@H]1C/C=C(/C=O)CC(=O)OCc1cn(CCCN2C(=O)C(=O)c3cc(OC)ccc32)nn1 | Non-Toxic |  | Active | Active |  |  |
| C=C1CC[C@H]2C(C)(C)CCC[C@]2(C)[C@H]1C/C=C(/C=O)CC(=O)OCc1cn(CCCN2C(=O)C(=O)c3cc(C)ccc32)nn1 | Non-Toxic |  | Active | Active |  |  |
| C=C1CC[C@H]2C(C)(C)CCC[C@]2(C)[C@H]1C/C=C(\CC(=O)OCc1cn(CCN2C(=O)C(=O)c3cc(Cl)ccc32)nn1)C(=O)OCc1cn(CCN2C(=O)C(=O)c3cc(Cl)ccc32)nn1 | Non-Toxic |  | Active | Active |  |  |
| C=C1CC[C@H]2C(C)(C)CCC[C@]2(C)[C@H]1C/C=C(/C=O)CC(=O)OCc1cn(CCCN2C(=O)C(=O)c3cc(OC(F)(F)F)ccc32)nn1 | Non-Toxic |  | Active | Active |  |  |
| C=C1CC[C@H]2C(C)(C)CCC[C@]2(C)[C@H]1C/C=C(/C=O)CC(=O)OCc1cn(CCCCN2C(=O)C(=O)c3cc(I)ccc32)nn1 | Non-Toxic |  | Active | Active |  |  |
| C=C1CC[C@H]2C(C)(C)CCC[C@]2(C)[C@H]1C/C=C(\CC(=O)OCc1cn(CCCN2C(=O)C(=O)c3cc(Cl)ccc32)nn1)C(=O)OCc1cn(CCCN2C(=O)C(=O)c3cc(Cl)ccc32)nn1 | Non-Toxic |  | Active | Active |  |  |
| C=C1CC[C@H]2C(C)(C)CCC[C@]2(C)[C@H]1C/C=C(/C=O)CC(=O)OCc1cn(CCN2C(=O)C(=O)c3cc(OC(F)(F)F)ccc32)nn1 | Non-Toxic | Active | Active | Active |  |  |
| C=C1CC[C@H]2C(C)(C)CCC[C@]2(C)[C@H]1C/C=C(\CC(=O)OCc1cn(CCN2C(=O)C(=O)c3cc(C)ccc32)nn1)C(=O)OCc1cn(CCN2C(=O)C(=O)c3cc(C)ccc32)nn1 | Non-Toxic |  | Active | Active |  |  |
| C=C1CC[C@H]2C(C)(C)CCC[C@]2(C)[C@H]1C/C=C(/C=O)CC(=O)OCc1cn(CCCCN2C(=O)C(=O)c3cc(F)ccc32)nn1 | Non-Toxic |  | Active | Active |  |  |
| C=C1CC[C@H]2C(C)(C)CCC[C@]2(C)[C@H]1C/C=C(\CC(=O)OCc1cn(CCN2C(=O)C(=O)c3ccccc32)nn1)C(=O)OCc1cn(CCN2C(=O)C(=O)c3ccccc32)nn1 | Non-Toxic | Active | Active | Active |  |  |
| C=C1CC[C@H]2C(C)(C)CCC[C@]2(C)[C@H]1C/C=C(\CC(=O)OCc1cn(CCN2C(=O)C(=O)c3cc(F)ccc32)nn1)C(=O)OCc1cn(CCN2C(=O)C(=O)c3cc(F)ccc32)nn1 | Non-Toxic |  | Active | Active |  |  |
| C=C1CC[C@H]2C(C)(C)CCC[C@]2(C)[C@H]1C/C=C(/C=O)CC(=O)OCc1cn(CCCCN2C(=O)C(=O)c3cc(OC)ccc32)nn1 | Non-Toxic |  | Active | Active |  |  |
| C=C1CC[C@H]2C(C)(C)CCC[C@]2(C)[C@H]1C/C=C(/C=O)CC(=O)OCc1cn(CCN2C(=O)C(=O)c3cc(C)ccc32)nn1 | Non-Toxic |  | Active | Active |  |  |
| C=C1CC[C@H]2C(C)(C)CCC[C@]2(C)[C@H]1C/C=C(/C=O)CC(=O)OCc1cn(CCN2C(=O)C(=O)c3cc(I)ccc32)nn1 | Non-Toxic | inactive | Active | Active |  |  |
| C=C1CC[C@H]2C(C)(C)CCC[C@]2(C)[C@H]1C/C=C(\CC(=O)OCc1cn(CCN2C(=O)C(=O)c3cc(I)ccc32)nn1)C(=O)OCc1cn(CCN2C(=O)C(=O)c3cc(I)ccc32)nn1 | Non-Toxic |  | Active | Active |  |  |
| C=C1CC[C@H]2C(C)(C)CCC[C@]2(C)[C@H]1C/C=C(/C=O)CC(=O)OCc1cn(CCCN2C(=O)C(=O)c3cc(F)ccc32)nn1 | Non-Toxic | Active | Active | Active |  |  |
